# Assay results published in PubChem BioAssay (NCI).
#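 Results reflect a 48-hour exposure of cells in 96-well plates to compound at five concentrations. GI50 is the concentration that inhibits growth by half. TGI is the concentration that stops growth completely.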
# Columns and labels:
# Assay in all cases: NCI tumour cell line growth inhibition, 48 h
# [1] = tested on: KM12 colon
# [2] = tested on: UACC-257 melanoma
# [3] = tested on: U251 CNS
# [4] = tested on: CCRF-CEM leukemia
# [5] = tested on: SN12C renal
# [6] = tested on: NCI-H226 lung
# [7] = tested on: TK-10 renal
# [8] = tested on: SK-MEL-5 melanoma
# [9] = tested on: SNB-75 CNS
# [10] = tested on: OVCAR-3 ovarian
# [11] = tested on: HCT-116 colon
# [12] = tested on: HOP-92 NSCLC
# [13] = tested on: SK-OV-3 ovarian
# [14] = tested on: BT-549 breast
# [15] = tested on: OVCAR-4 ovarian
# [16] = tested on: HL-60(TB) leukemia
# [17] = tested on: A549 NSCLC
# [18] = tested on: K-562 leukemia
# [19] = tested on: SW-620 colon
# [20] = tested on: NCI-H522 lung
# [21] = tested on: NCI/ADR-RES ovarian
# [22] = tested on: UO-31 renal
# [23] = tested on: IGROV1 ovarian
# [24] = tested on: HT29 colon
# [25] = tested on: CAKI-1 renal
# [26] = tested on: EKVX NSCLC
# [27] = tested on: T-47D breast
# [28] = tested on: SK-MEL-28 melanoma
# [29] = tested on: M14 melanoma
# [30] = tested on: HCC-2998 colon
# [31] = tested on: A498 renal
# [32] = tested on: UACC-62 melanoma
# [33] = tested on: HOP-62 NSCLC
# [34] = tested on: ACHN renal
# [35] = tested on: OVCAR-8 ovarian
# [36] = tested on: MOLT-4 leukemia
# [37] = tested on: MCF7 breast
# [38] = tested on: SR leukemia
# [39] = tested on: OVCAR-5 ovarian
# [40] = tested on: SK-MEL-2 melanoma
# [41] = tested on: DU-145 prostate
# [42] = tested on: MDA-MB-231 breast
# [43] = tested on: HS 578T breast
# [44] = tested on: HCT-15 colon
# [45] = tested on: SNB-19 CNS
# [46] = tested on: 786-0 renal
# [47] = tested on: SF-539 CNS
# [48] = tested on: MDA-MB-435
# [49] = tested on: MALME-3M melanoma
# [50] = tested on: SF-268 CNS
# [51] = tested on: PC-3 prostate
# [52] = tested on: NCI-H23 lung
# [53] = tested on: SF-295 CNS
# [54] = tested on: LOX IMVI melanoma
# [55] = tested on: NCI-H460 lung
# [56] = tested on: COLO 205 colon
# [57] = tested on: RXF 393 renal
# [58] = tested on: RPMI-8226 leukemia
structure (smiles),measurement,setting,value
COc1cc(-c2nc3ccccc3s2)ccc1OCc1nc2n(n1)S(=O)(=O)c1ccccc1N2C,GI50,[1],> 100 µM
same,TGI,[1],> 100 µM
same,GI50,[2],> 100 µM
same,TGI,[2],> 100 µM
same,GI50,[3],> 100 µM
same,TGI,[3],> 100 µM
same,GI50,[4],> 100 µM
same,TGI,[4],> 100 µM
same,GI50,[5],> 100 µM
same,TGI,[5],> 100 µM
same,GI50,[6],> 100 µM
same,TGI,[6],> 100 µM
same,GI50,[7],> 100 µM
same,TGI,[7],> 100 µM
same,GI50,[8],> 100 µM
same,TGI,[8],> 100 µM
same,GI50,[9],99.6 µM
same,TGI,[9],> 100 µM
same,GI50,[10],62.4 µM
same,TGI,[10],> 100 µM
same,GI50,[11],> 100 µM
same,TGI,[11],> 100 µM
same,GI50,[12],43.9 µM
same,TGI,[12],> 100 µM
same,GI50,[13],> 100 µM
same,TGI,[13],> 100 µM
same,GI50,[14],> 100 µM
same,TGI,[14],> 100 µM
same,GI50,[15],> 100 µM
same,TGI,[15],> 100 µM
same,GI50,[16],> 100 µM
same,TGI,[16],> 100 µM
same,GI50,[17],> 100 µM
same,TGI,[17],> 100 µM
same,GI50,[18],97.4 µM
same,TGI,[18],> 100 µM
same,GI50,[19],> 100 µM
same,TGI,[19],> 100 µM
same,GI50,[20],96.8 µM
same,TGI,[20],> 100 µM
same,GI50,[21],> 100 µM
same,TGI,[21],> 100 µM
same,GI50,[22],> 100 µM
same,TGI,[22],> 100 µM
same,GI50,[23],> 100 µM
same,TGI,[23],> 100 µM
same,GI50,[24],> 100 µM
same,TGI,[24],> 100 µM
same,GI50,[25],> 100 µM
same,TGI,[25],> 100 µM
same,GI50,[26],> 100 µM
same,TGI,[26],> 100 µM
same,GI50,[27],> 100 µM
same,TGI,[27],> 100 µM
same,GI50,[28],> 100 µM
same,TGI,[28],> 100 µM
same,GI50,[29],> 100 µM
same,TGI,[29],> 100 µM
same,GI50,[30],> 100 µM
same,TGI,[30],> 100 µM
same,GI50,[31],> 100 µM
same,TGI,[31],> 100 µM
same,GI50,[32],> 100 µM
same,TGI,[32],> 100 µM
same,GI50,[33],> 100 µM
same,TGI,[33],> 100 µM
same,GI50,[34],> 100 µM
same,TGI,[34],> 100 µM
same,GI50,[35],> 100 µM
same,TGI,[35],> 100 µM
same,GI50,[36],> 100 µM
same,TGI,[36],> 100 µM
same,GI50,[37],> 100 µM
same,TGI,[37],> 100 µM
same,GI50,[38],> 100 µM
same,TGI,[38],> 100 µM
same,GI50,[39],> 100 µM
same,TGI,[39],> 100 µM
same,GI50,[40],> 100 µM
same,TGI,[40],> 100 µM
same,GI50,[41],> 100 µM
same,TGI,[41],> 100 µM
same,GI50,[42],> 100 µM
same,TGI,[42],> 100 µM
same,GI50,[43],> 100 µM
same,TGI,[43],> 100 µM
same,GI50,[44],> 100 µM
same,TGI,[44],> 100 µM
same,GI50,[45],> 100 µM
same,TGI,[45],> 100 µM
same,GI50,[46],> 100 µM
same,TGI,[46],> 100 µM
same,GI50,[47],> 100 µM
same,TGI,[47],> 100 µM
same,GI50,[48],> 100 µM
same,TGI,[48],> 100 µM
same,GI50,[49],> 100 µM
same,TGI,[49],> 100 µM
same,GI50,[50],> 100 µM
same,TGI,[50],> 100 µM
same,GI50,[51],> 100 µM
same,TGI,[51],> 100 µM
same,GI50,[52],> 100 µM
same,TGI,[52],> 100 µM
same,GI50,[53],> 100 µM
same,TGI,[53],> 100 µM
same,GI50,[54],> 100 µM
same,TGI,[54],> 100 µM
same,GI50,[55],> 100 µM
same,TGI,[55],> 100 µM
same,GI50,[56],> 100 µM
same,TGI,[56],> 100 µM
CCNc1nc(N2CC(=O)Nc3cc(OC)ccc32)c2ccccc2n1,GI50,[57],0.001 µM
same,GI50,[1],0.000404 µM
same,TGI,[1],> 100 µM
same,GI50,[3],0.000437 µM
same,TGI,[3],> 100 µM
same,GI50,[4],0.000404 µM
same,TGI,[4],> 100 µM
same,GI50,[5],0.00137 µM
same,TGI,[5],> 100 µM
same,TGI,[6],> 100 µM
same,GI50,[7],0.0822 µM
same,TGI,[7],> 100 µM
same,GI50,[8],0.000456 µM
same,TGI,[8],0.00337 µM
same,GI50,[9],0.000433 µM
same,TGI,[9],> 100 µM
same,GI50,[10],0.000352 µM
same,GI50,[11],0.000361 µM
same,TGI,[11],> 100 µM
same,GI50,[12],1.26 µM
same,TGI,[12],9.69 µM
same,GI50,[13],0.000483 µM
same,TGI,[13],0.0134 µM
same,GI50,[14],0.00237 µM
same,TGI,[14],3.91 µM
same,TGI,[15],> 100 µM
same,GI50,[16],0.000235 µM
same,TGI,[16],0.000581 µM
same,GI50,[17],0.000737 µM
same,TGI,[17],> 100 µM
same,GI50,[18],0.000351 µM
same,TGI,[18],> 100 µM
same,GI50,[19],0.000378 µM
same,TGI,[19],> 100 µM
same,GI50,[20],0.00051 µM
same,TGI,[20],0.00783 µM
same,GI50,[21],0.000399 µM
same,TGI,[21],0.015 µM
same,TGI,[22],> 100 µM
same,GI50,[23],0.00184 µM
same,TGI,[23],14.1 µM
same,GI50,[24],0.000334 µM
same,TGI,[24],0.01 µM
same,GI50,[25],0.0022 µM
same,TGI,[25],> 100 µM
same,TGI,[26],> 100 µM
same,GI50,[27],0.253 µM
same,TGI,[27],52.9 µM
same,GI50,[28],1.7 µM
same,TGI,[28],> 100 µM
same,GI50,[29],0.000363 µM
same,TGI,[29],> 100 µM
same,GI50,[30],0.000614 µM
same,GI50,[31],0.00151 µM
same,GI50,[32],0.00054 µM
same,TGI,[32],> 100 µM
same,GI50,[33],0.00227 µM
same,TGI,[33],14.2 µM
same,GI50,[34],0.00139 µM
same,TGI,[34],> 100 µM
same,GI50,[35],0.000945 µM
same,TGI,[35],> 100 µM
same,GI50,[36],0.000472 µM
same,TGI,[36],> 100 µM
same,GI50,[37],0.000369 µM
same,TGI,[37],> 100 µM
same,GI50,[39],0.0107 µM
same,TGI,[39],> 100 µM
same,TGI,[40],42.7 µM
same,GI50,[41],0.000435 µM
same,TGI,[41],12.1 µM
same,GI50,[42],0.000553 µM
same,TGI,[42],> 100 µM
same,GI50,[43],0.00164 µM
same,TGI,[43],47.8 µM
same,GI50,[44],0.000609 µM
same,TGI,[44],> 100 µM
same,GI50,[58],0.000471 µM
same,TGI,[58],24.3 µM
same,GI50,[45],0.00067 µM
same,TGI,[45],> 100 µM
same,GI50,[46],0.00994 µM
same,TGI,[46],> 100 µM
same,GI50,[47],0.0011 µM
same,TGI,[47],0.00655 µM
same,GI50,[48],0.000193 µM
same,TGI,[48],0.000442 µM
same,GI50,[49],7.57 µM
same,TGI,[49],> 100 µM
same,GI50,[50],0.00139 µM
same,TGI,[50],> 100 µM
same,GI50,[51],0.00058 µM
same,TGI,[51],> 100 µM
same,GI50,[52],0.000554 µM
same,TGI,[52],> 100 µM
same,GI50,[53],0.00129 µM
same,TGI,[53],0.00614 µM
same,GI50,[54],0.000693 µM
same,TGI,[54],> 100 µM
same,GI50,[55],0.000365 µM
same,TGI,[55],> 100 µM
same,GI50,[56],0.00035 µM
same,TGI,[56],0.00207 µM
